Data on one molecule can be found in US4246273A, “1,5-Disubstituted imidazolid-4-ones” (Beecham Group Limited, priority 1978, dated 1981).

The assay deals with indomethacin induced gastric damage. The assay is described as follows: Anti-ulcer activity: inhibition of indomethacin induced gastric damage in the rat. It counts as in vivo. Particulars: 100 mg/kg orally, 30 minutes prior to indomethacin 15 mg/kg s.c.; score scale 1-9 after 4 hours; vehicle control 3.71 ± 0.80; P<0.01 (Mann Witney test). The protocol: Anti-ulcer activity was assessed by the inhibition of indomethacin induced gastric damage in the rat according to the method of Eleghe (1974) Israeli J. Med. Sci. 10. 1451. Rats were starved overnight and given 15 mg/kg indomethacin subcutaneously and sacrificed 4 hours later. Stomachs were reflated with n. saline, cut along the greater curvature pinned out and scored for gastric damage by the following system:
Score 1-3--according to degree of erythema and slight haemorrhage.
Score 4-6--according to degree of muscosal erosion.
Score 7-9--according to depth of gastric damage.
Groups of 7 rats were used for each treatment and the test compound or vehicle were administered 30 minutes prior to giving the indomethacin. Dose of test compound was 100 mg/kg orally and control groups receiving vehicle only were obtained using the above scoring system and the Mann Witney test applied for significance of difference between the values obtained with the treatments.

Structures are written as SMILES.

For `CCCCCCC(C)(O)CCN1CN(C)C(=O)C1CCCCCCC(=O)OC` (stereo not shown) [Compound 6, 1-(3'-hydroxy-3'-methyl-n-nonyl)-3-methyl-5-(6"-methoxycarbonyl-n-hexyl)-4-imidazolidone], the “Test Compound Mean Score ± S.E. of Mean (gastric damage)” value turned out to be 0.71 ± 0.42.
